Key:
[1] = tested on: E. coli MG1655 (sensitive strain); assay: Rapid antimicrobial susceptibility testing (broth dilution, large area CCD imaging); format: cell-based; details: after 4 hours of growth; comparable by CCD imaging, liquid culture or colony counting
Description: (§1) Cells of two strains, one resistant and one sensitive, were tested for their ability to grow in a period of several hours in the antibiotic. Growth was detected by large area imaging of individual cells stained with a fluorescent nucleic acid stain.
(§2) Experimental procedure. […] Also at these times points both a visible turbidity growth check and a plate count were performed. The turbidity check was performed according to NCCLS broth dilution guidelines. A “+” was recorded for a turbid culture and a “−” for non-turbid culture. The 1 ml aliquots were then stained with Syber Green I as in Example 2. Aliquots (10 μl) of the stained cells were placed in separate wells (with optically clear bottoms) of a 96 well plate (Greiner America, Inc.; cat. num. 655896), which contained 90 μl of water (Type I quality). The plates were spun in a centrifuge (Beckman Allegra) for 10 min at 600 g and then imaged. Fluorescence was detected by imaging using a CCD imager (described in Step 6 of Detailed description section and shown in FIG. 3) with an FITC optical filter set (Chroma/excitation 470/40 nm, emission 522/40 nm). Image-Pro Plus software, version 4.1 (Media cybernetics) was used to capture and process images from the CCD Imager.

[2] = tested on: E. coli MG1655/pLAFRI (resistant strain); details: after 4 hours of growth; comparable by CCD imaging, liquid culture or colony counting
Description: as §1, §2

CN(C)[C@@H]1C(O)=C(C(N)=O)C(=O)[C@@]2(O)C(O)=C3C(=O)c4c(O)cccc4[C@@](C)(O)[C@H]3C[C@@H]12 [tetracycline]
antibiotic concentration that inhibited growth of the antibiotic sensitive strain [1]: 0.25 µg/mL
antibiotic concentration in which dramatic growth of the resistant strain was evident [2]: 64 µg/mL
